The values below come from patent US10258610B2, “Pharmaceutical compositions comprising rifaximin, processes for their preparation and their use in the treatment of vaginal infections” (ALFASIGMA S.P.A., priority 2011, dated 2019).

For the data set, the system named is Gardnerella vaginalis. Type of data set: in vivo, New Zealand rabbits (Oryctolagus cunicolis). Here is the method:
The efficacy of vaginal compositions in rifaximin containing tablets and ovules was evaluated in an animal model of bacterial infection persistent in the rabbit.
The vaginal infection model was induced by inoculation of Gardnerella vaginalis isolated from women affected by bacterial vaginosis. The bacterial strains were grown in agar of bovine red blood cells at 37° C. by adding a DIFCO-C supplement and were kept under controlled atmosphere 5% CO2 for 24-48 hours.
For developing the model of animal infection, New Zealand rabbits (Oryctolagus cunicolis) having a weight comprised between 2 and 3 kg were used.
Before the infection, the animals had been treated with 1 ml 10% enrofloxacin solution for reducing the endogenous Lactobacilli and facilitating the growth of pathogenic agent. The infection was induced by inoculating in the animals vagina 1 ml of sterile saline solution containing 106-7 UFC (Unit Forming Colony) of Gardnerella vaginalis by using a 22-24G Teflon catheter. The presence of G. vaginalis in the animals was verified before the inoculation and 24 and 48 hours after the inoculation.
The animals were inoculated twice and thrice at time intervals of three days. After 14 days the last inoculation all animals were treated with 1 ml 10% enrofloxacin solution to verify the model sensitivity to antibiotics. The treatment healed the infection, thus confirming that the model can be used to evaluate the efficacy of antibiotics administered via the intravaginal route.
The presence of G. vaginalis was verified by vaginal buffer 1, 2, 4, 10 and 14 days after the last inoculation, putting the vaginal buffers in agar plates of bovine red blood cells with DIFCO-C supplement and growing them at 37° C. for 48 hours. The presence of G. vaginalis was verified by means of microscope (1000×) morphological identification and with Gram staining.
Three and seven days after the end of the rifaximin treatment, the presence of Gardnerella vaginalis was evaluated by means of vaginal buffers as previously described.
The vaginal buffers were considered positive if 10 or more colonies were counted, and the presence of malodorous vaginal discharges was the clinical sign of the occurred infection.

Where two headings read alike, the source gives them in different places.

Turning to `CO[C@H]1/C=C/O[C@@]2(C)Oc3c(C)c(O)c4c(O)c(c5c(nc6cc(C)ccn65)c4c3C2=O)NC(=O)/C(C)=C\C=C\[C@H](C)[C@H](O)[C@@H](C)[C@@H](O)[C@@H](C)[C@H](OC(C)=O)[C@@H]1C` [Rifaximin], the “adverse event during treatment” value (rabbit, in vivo) is given as “No adverse event was observed”. Moreover, for the setting “seven days after the end of the treatment, tablets and ovules, 1.5 to 12.5 mg”, the “eradication of the infection (presence of Gardnerella vaginalis)” value is given as “negative for 7 days after the end of the treatment”. Besides, the Eradication by setting is: (vaginal ovules, rifaximin dose 1.5 mg, after 3 days) 100%; (vaginal ovules, rifaximin dose 1.5 mg, after 7 days) 100%; (vaginal ovules, rifaximin dose 3 mg, after 3 days) 88%; (vaginal ovules, rifaximin dose 3 mg, after 7 days) 100%; (vaginal ovules, rifaximin dose 6 mg, after 3 days) 88%; (vaginal ovules, rifaximin dose 6 mg, after 7 days) 100%. Moreover, the Eradication reads like this: (vaginal ovules, rifaximin dose 12.5 mg, after 3 days) 100%; (vaginal ovules, rifaximin dose 12.5 mg, after 7 days) 100%; (vaginal tablets, rifaximin dose 1.5 mg, after 3 days) 88%; (vaginal tablets, rifaximin dose 1.5 mg, after 7 days) 100%; (vaginal tablets, rifaximin dose 3 mg, after 3 days) 63%; (vaginal tablets, rifaximin dose 3 mg, after 7 days) 100%. The Eradication is 88% (vaginal tablets, rifaximin dose 6 mg, after 3 days); 100% (vaginal tablets, rifaximin dose 6 mg, after 7 days); 100% (vaginal tablets, rifaximin dose 12.5 mg, after 3 days); 100% (vaginal tablets, rifaximin dose 12.5 mg, after 7 days).
